Data published in patent US20220204449A1, “BIASED AGONISTS OF OPIOID RECEPTORS” (ILDONG PHARMACEUTICAL CO., LTD., priority 2020, published 2022).
“Also recorded” adds a separate entry of the source.

Legend:
Assay type in all cases: cell-based
[1] = molecular target: T1, human μ-opioid receptor, OPRM (Homo sapiens, UniProt P35372); test: Dominant assay: cAMP assay with/without irreversible antagonist β-FNA, OPRM cell line; conditions: for maximal response on decreasing receptor population (dominant tendency), in words: OPRM cell lines, β-FNA
T1 construct: host or cells: HEK-293 overexpressing β-arrestin2 fused to a β-galactosidase fragment
Text: (§1) To confirm the agonist's efficacy in a nature-like system, we need inactivation of target receptors on the cell membrane. Most cell lines have an abundant target receptor population (also known as spare receptors). Therefore, agonists have more opportunity to constitute agonist-receptor conformation. In this environment, not only full agonists but also partial agonists can reach maximal response.
(§2) If the partial agonist is selected as a full agonist, translational in vivo research will likely fail.
(§3) Non-competitive, irreversible antagonists can be applicable to judge the pharmacological character of agonists because they permanently decrease the receptor population in the cell line system. β-FNA or β-CNA is used as a non-competitive and irreversible antagonist for OPRM, OPRD. Before cAMP assay, cells were incubated with β-FNA or β-CNA for 40 minutes. Afterwards, the procedure is the same.
(§4) If a partial agonist compound acts as a full agonist due to receptor population (pseudo full agonist), it cannot sustain maximal response with reduced receptor population. However, a full agonist compound maintains their maximal response even though increased EC50.

[2] = molecular target: T1, human μ-opioid receptor, OPRM; test: cAMP accumulation assay (Gi pathway), OPRM cell line; conditions: for EC50 / OPRM Gi Hill slope / Emax: Table 1; for EC50 / Emax: cAMP; for OPRM Gi Hill slope: cAMP concentration-response curve; for Emax: normalized to reference agonist DAMGO
Text: (§5) Human embryonic kidney 293 (HEK-293) cells which transfected overexpress (3-arrestin2 fused β-galactosidase fragment were purchased from DiscoverX. Human OPRM1 gene (NM 000914.3, encoding human μ-opioid receptor, OPRM) and Human OPRD1 gene (NM 000911.3, encoding human δ-opioid receptor, OPRD) were fused to a pCMV-ProLink plasmid which contains complementary β-galactosidase fragment purchased from DiscoverX. To generate human OPRM1 or OPRD1 expression cell lines, HEK-293 cells were transfected to prepared plasmid and grown in DMEM medium with 10% fetal bovine serum, 150 μg/mL Hygromycin B and 500 μg/mL G418.
(§6) Cyclic Adenosine Monophosphate (cAMP) Accumulation
(§7) The agonist's efficacy to the G protein pathway was determined by changes in the cAMP level using the Cisbio cAMP detection kit. The cells used in cAMP assays are the same cell line as used in the β-arrestin 2 assays. The human opioid receptor activates the Gαi so intracellular cAMP accumulation is inhibited. Cisbio detection kit uses labeled cAMP and antibody. This system proceeds to compete with endogenous cAMP. If Gαi is activated, intracellular cAMP decreases. This assures that labeled-cAMP binds more with the antibody so that time-resolved fluorescence […].
(§8) cAMP and β-arrestin assays described above were conducted to decide whether candidate compounds were μ- and/or δ-opioid receptor bias agonists for the G-protein pathway. All assays produced the concentration-response curve, and the curve data was validated by a quality control factor named Z′ factor. Because half-maximal effect concentration (EC50) depends on the population of receptors, the maximal asymptote of the concentration curve was used. Efficacy data of candidates was normalized by comparison to reference agonists DAMGO and SNC80 for OPRM and OPRD.
(§9) The hill slope describes the steepness of the curve. […] We set the appropriate interval of hill slope as 0.8<n<1.5 which maintains the sigmoidal curve shape.

[3] = molecular target: T2, human δ-opioid receptor, OPRD (Homo sapiens, UniProt P41143); test: PathHunter β-arrestin 2 assay, OPRD cell line
T2 construct: host or cells: HEK-293 overexpressing β-arrestin2 fused to a β-galactosidase fragment
Text: as §5
(§10) The PathHunter enzyme assay was performed to measure the agonist's capability of β-arrestin 2 pathway activation. When agonists bind to G protein-coupled receptor (GPCR), the receptor pathway is sequentially activated from G protein to β-arrestin 2 recruitment.
(§11) Because […] β-arrestin 2 and C-terminal of GPCR have a fragment of β-galactosidase, recruitment of β-arrestin 2 to GPCR forms the whole β-galactosidase. The functionality of the whole β-galactosidase is detected by chemiluminescence (FlexStation3, Molecular Devices).
as §8

[4] = molecular target: T2, human δ-opioid receptor, OPRD; test: cAMP accumulation assay (Gi pathway), OPRD cell line; conditions: for OPRD Gi Hill slope: cAMP concentration-response curve; for Emax: normalized to reference agonist SNC80
Text: as §5, §6, §7, §8, §9

[5] = molecular target: T2, human δ-opioid receptor, OPRD; test: Dominant assay: cAMP assay with/without irreversible antagonist β-CNA, OPRD cell line; conditions: for maximal response on decreasing receptor population (dominant tendency), in words: OPRD cell lines, β-CNA; for completeness of concentration-response curve, in words: OPRD system
Text: as §1, §2, §3, §4

[6] = molecular target: T1, human μ-opioid receptor, OPRM; test: PathHunter β-arrestin 2 assay, OPRM cell line
Text: as §5, §10, §11, §8

[7] = addition of β-FNA, Example 3, Tables 5-7, read-out: OPRM Gi β-FNA (+) EC50
[8] = addition of β-FNA, Example 3, Tables 5-7, read-out: OPRM Gi β-FNA (+) Emax (%)
[9] = addition of β-FNA, repeated dominant assay, Example 4, Tables 8-10, read-out: OPRM Gi β-FNA (+) EC50
[10] = addition of β-FNA, repeated dominant assay, Example 4, Tables 8-10, read-out: OPRM Gi β-FNA (+) Emax (%)
[11] = no addition of β-FNA, Example 3, Tables 5-7, read-out: OPRM Gi β-FNA (−) EC50
[12] = no addition of β-FNA, Example 3, Tables 5-7, read-out: OPRM Gi β-FNA (−) Emax (%)
[13] = no addition of β-FNA, repeated dominant assay, Example 4, Tables 8-10, read-out: OPRM Gi β-FNA (−) EC50
[14] = no addition of β-FNA, repeated dominant assay, Example 4, Tables 8-10, read-out: OPRM Gi β-FNA (−) Emax (%)
[15] = Example 3, Tables 5-7, read-out: OPRD β-ARR2 Emax (%)
[16] = Table 1, normalized to reference agonist SNC80, read-out: OPRD arrestin Emax, %
[17] = Table 1, cAMP, read-out: OPRD Gi EC50
[18] = addition of β-CNA, Example 3, Tables 5-7, read-out: OPRD Gi β-CNA (+) EC50
[19] = addition of β-CNA, Example 3, Tables 5-7, read-out: OPRD Gi β-CNA (+) Emax (%)
[20] = addition of β-CNA, repeated dominant assay, Example 4, Tables 8-10, read-out: OPRD Gi β-CNA (+) EC50
[21] = addition of β-CNA, repeated dominant assay, Example 4, Tables 8-10, read-out: OPRD Gi β-CNA (+) Emax (%)
[22] = no addition of β-CNA, Example 3, Tables 5-7, read-out: OPRD Gi β-CNA (−) EC50
[23] = no addition of β-CNA, Example 3, Tables 5-7, read-out: OPRD Gi β-CNA (−) Emax (%)
[24] = no addition of β-CNA, repeated dominant assay, Example 4, Tables 8-10, read-out: OPRD Gi β-CNA (−) EC50
[25] = no addition of β-CNA, repeated dominant assay, Example 4, Tables 8-10, read-out: OPRD Gi β-CNA (−) Emax (%)
[26] = Example 3, Tables 5-7, read-out: OPRM β-ARR2 Emax (%)
[27] = Table 1, normalized to reference agonist DAMGO, read-out: OPRM arrestin Emax, %

T1 sequence (P35372 whole entry, the tested form may be a part): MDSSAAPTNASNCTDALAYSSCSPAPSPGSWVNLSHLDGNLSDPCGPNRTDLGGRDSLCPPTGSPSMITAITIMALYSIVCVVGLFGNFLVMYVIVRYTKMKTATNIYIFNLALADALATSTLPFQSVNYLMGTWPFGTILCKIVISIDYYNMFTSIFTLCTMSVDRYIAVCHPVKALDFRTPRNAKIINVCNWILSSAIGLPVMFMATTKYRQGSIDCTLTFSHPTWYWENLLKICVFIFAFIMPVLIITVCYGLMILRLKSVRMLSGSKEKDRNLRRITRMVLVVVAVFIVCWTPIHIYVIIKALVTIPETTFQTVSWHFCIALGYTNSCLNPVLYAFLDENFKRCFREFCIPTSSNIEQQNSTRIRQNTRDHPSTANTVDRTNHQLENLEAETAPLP
T2 sequence (P41143 whole entry, the tested form may be a part): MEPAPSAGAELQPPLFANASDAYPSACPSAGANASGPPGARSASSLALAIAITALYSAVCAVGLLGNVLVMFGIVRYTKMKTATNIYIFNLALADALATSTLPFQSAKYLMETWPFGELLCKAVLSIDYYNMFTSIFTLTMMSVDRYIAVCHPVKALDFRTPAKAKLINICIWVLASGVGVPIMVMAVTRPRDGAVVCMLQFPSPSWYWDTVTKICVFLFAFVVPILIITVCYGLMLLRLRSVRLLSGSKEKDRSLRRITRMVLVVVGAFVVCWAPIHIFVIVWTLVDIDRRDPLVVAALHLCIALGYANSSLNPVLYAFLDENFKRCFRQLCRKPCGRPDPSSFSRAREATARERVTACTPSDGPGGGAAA

SMILES | maximal response on decreasing receptor population (dominant tendency), in words [1] | EC50 [1, 7] | Emax [1, 8] | EC50 [1, 9] | Emax [1, 10] | Emax [1, 12] | OPRM Gi Hill slope [2] | Emax [2] | Emax [3, 15] | Emax [3, 16] | OPRD Gi Hill slope ([4]; Table 1) | Emax ([4]; Table 1, cAMP) | EC50 [4, 17] | completeness of concentration-response curve, in words [5] | EC50 [5, 18] | Emax [5, 19] | EC50 [5, 22] | Emax [5, 23] | Emax [6, 26] | Emax [6, 27] | other results
CN1CCc2cc(C(CNC(=O)Nc3ccc(F)cc3)N(C)C)ccc21 (racemic) [Compound 2, 3-[2-(dimethylamino)-2-(1-methyl-2,3-dihydro-1H-indol-5-yl)ethyl]-1-(4-fluorophenyl)urea] | showed a similar pattern as compared to DAMGO; also recorded: resistant to decreasing spare receptors; also recorded: resistant to decreasing spare receptor-induced tendency | 1170 nM | 80.1% | 4190 nM | 77.4% | 98.6% | 0.94 | 109% | 4.66% | 4.66% | 1.44 | 92.4% | 1050 nM | produced a full concentration-response curve | 2380 nM | 78.5% | 4.98 nM | 98.9% | 15.3% | 15.3% | EC50 [1, 11]: 682 nM; EC50 [1, 13]: 1700 nM; Emax [1, 14]: 103%; EC50 [2]: 1880 nM; maximal response on decreasing receptor population (dominant tendency), in words [5]: resistant to decreasing spare receptors; also recorded: resistant to decreasing spare receptor-induced tendency; EC50 [5, 20]: 6220 nM; Emax [5, 21]: 70.2%; EC50 [5, 24]: 1650 nM; Emax [5, 25]: 100%
COc1ccsc1CNCC[C@@]1(c2ccccn2)CCOC2(CCCC2)C1 [TRV130, reference compound] | susceptible to decreasing receptor populations than DAMGO; also recorded: attenuates the efficacy; also recorded: more susceptible to decreasing receptor populations than DAMGO |  | 56.3% |  |  | 89.5% | 0.35 | 101% | 9.6% | 9.6% | 1.28 | 63.4% |  | produced a full concentration-response curve |  | 67.2% |  | 73.9% | 2.4% | 2.41% | Gi pathway agonism, in words ([2]; OPRM): full agonism; EC50 [4]: 2040 nM; EC50 ([5]; OPRD Gi β-CNA (+) EC50 (nM), addition of β-CNA, Example 3, Tables 5-7): 1200 nM; EC50 ([5]; OPRD Gi β-CNA (−) EC50 (nM), no addition of β-CNA, Example 3, Tables 5-7): 1.49 nM; maximal response on decreasing receptor population (dominant tendency), in words [5]: more susceptible to decreasing receptor populations than SNC80; also recorded: less resistance to decreasing spare receptors than SNC80
C[C@@H](Cc1ccsc1)NC(=O)NC[C@H](Cc1ccc(O)cc1)N(C)C [PZM21, reference compound] |  |  |  |  |  |  |  |  |  |  | 0.83 |  | 230 nM | produced a full concentration-response curve | 288 nM |  | 119 nM |  |  |  | OPRD β-ARR2 Emax (%) ([3]; Example 3, Tables 5-7): 3.41%; OPRD arrestin Emax, % ([3]; Table 1, normalized to reference agonist SNC80): 3.41%; Gi pathway agonism, in words ([4]; OPRD): OPRM, OPRD dual biased agonist; maximal response on decreasing receptor population (dominant tendency), in words [5]: more susceptible to decreasing receptor populations than SNC80; also recorded: less resistance to decreasing spare receptors than SNC80; OPRD Gi β-CNA (+) Emax (%) ([5]; addition of β-CNA, Example 3, Tables 5-7): 58.77%; OPRD Gi β-CNA (−) Emax (%) ([5]; no addition of β-CNA, Example 3, Tables 5-7): 95.97%
Cc1ccccc1NC(=O)NCC(c1ccc2c(c1)CCO2)N(C)C (racemic) [Compound 3, 3-[2-(2,3-dihydro-1-benzofuran-5-yl)-2-(dimethylamino)ethyl]-1-(2-methylphenyl)urea] | showed a similar pattern as compared to DAMGO | 1580 nM | 91.3% | 22.7 nM | 75.5% | 97.9% | 1.48 | 112% | 1.99% | 1.99% | 1.16 | 94.6% | 8370 nM | curve was cut due to the X-axis limitation | 10600 nM | 50.9% | 4350 nM | 106% | 12.2% | 12.2% | EC50 [1, 11]: 656 nM; EC50 [1, 13]: 36 nM; Emax [1, 14]: 102%; EC50 [2]: 1290 nM; EC50 [5, 20]: 4450 nM; Emax [5, 21]: 48.2%; EC50 [5, 24]: 3630 nM; Emax [5, 25]: 100%
CN(C)C(CNC(=O)Cc1ccc2c(c1)OCCO2)c1ccccc1 (racemic) [Compound 1, 2-(2,3-dihydro-1,4-benzodioxin-6-yl)-N-[2-(dimethylamino)-2-phenylethyl]acetamide] | showed a similar pattern as compared to DAMGO | 5860 nM | 88.2% | 3880 nM | 67.5% | 101% | 0.99 | 102% | 7.37% | 7.37% | 1.39 | 88.9% | 4160 nM | curve was cut due to the X-axis limitation | 9 nM | 108% | 4.91 nM | 113% | 12.9% | 12.9% | EC50 [1, 11]: 2090 nM; EC50 [1, 13]: 1160 nM; Emax [1, 14]: 100%; EC50 [2]: 730 nM; EC50 [5, 20]: 7870 nM; Emax [5, 21]: 46.6%; EC50 [5, 24]: 8770 nM; Emax [5, 25]: 104%
